Results on 17 compounds are retold here after US9133219B2, “Bicyclic antibiotics” (Basilea Pharmaceutica AG, priority 2009, dated 2015).

The structures appear in SMILES notation. In brackets after ≈: the same amount, converted by molar mass.

Holding throughout (format): cell-based
Assay [1] concerns Escherichia coli. As to the kind of experiment: Anti-microbial activity assay, MIC by broth microdilution. The settings on record: Escherichia coli; strain UB1005; read-out: MIC Escherichia coli UB1005. How it is done: (§1) Anti-Microbial Activity Assay.
(§2) The antibacterial activity of compounds is determined by the minimal inhibitory concentration (MIC) method. MICs for all bacteria except pneumococci and Haemophilus influenzae are obtained by broth microdilution with cation-adjusted Mueller-Hinton broth (CAMHB; BBL), according to CLSI guidelines (National Committee for Clinical Laboratory Standards. 2003. Methods for dilution antimicrobial susceptibility tests for bacteria that grow aerobically, 5th ed.; approved standard M7-A6. National Committee for Clinical Laboratory Standards, Wayne, Pa.), with the following modifications: (i) for pneumococci CAMHB is supplemented with 5% (^v/v) horse serum; (ii) for Haemophilus influenzae CAMHB is supplemented with 5% (^v/v) Fildes enrichment (BBL) (Pankuch, G. A., Hoellman, D. B., Lin, G., Bajaksouzian, S., Jacobs, M. R., and Appelbaum, P. C. 1998. Activity of HMR 3647 compared to those of five agents against Haemophilus influenzae and Moraxella catarrhalis by MIC determination and time-kill assay. Antimicrob. Agents Chemother. 42:3032-3034). Microtiter plates are incubated at 35° C. in ambient air for 20 to 24 h, then inspected using an illuminated microtiter plate reader fitted with a magnifying mirror (MIC 2000; Cooke Laboratory Products, Alexandria, Va.). Compounds of the present invention are tested against several bacteria strains comprising some Acinetobacter baumannii, Enterococcus faecalis, Enterococcus faecitan, Escherichia coli, Haemophilus influenzae, Klebsiella pneumoniae, Pseudomonas aeruginosa, Staphylococcus aureus, Staphylococcus epidermidis and Streptococcus pneumoniae.
For orientation: In broth dilution the organism is exposed to a series of concentrations in liquid medium.

Assay [2] relates to Staphylococcus aureus. Described as above. Particulars: Staphylococcus aureus; strain ATCC29213; read-out: MIC Staphylococcus aureus ATCC29213. How it is done: as §1, §2
The test system of assay [3] is Staphylococcus epidermidis. Described as above. The settings on record: Staphylococcus epidermidis; strain ATCC14990. How it is done:
as §1, §2

The subject of assay [4] is Streptococcus pneumoniae. Briefly: Anti-microbial activity assay, MIC by broth microdilution (CAMHB with 5% horse serum). Particulars: Streptococcus pneumoniae; strain ATCC49619; CAMHB with 5% horse serum; read-out: MIC Streptococcus pneumoniae ATCC49619. How it is done:
as §1, §2

Assay [5] deals with Staphylococcus aureus and/or Staphylococcus epidermidis. As to the kind of experiment: MIC summary statement, staphylococci. Particulars: generally, for Staphylococcus aureus and/or Staphylococcus epidermidis. The method, then: as §1, §2
The test system of assay [6] is Staphylococcus aureus and/or Staphylococcus epidermidis and/or Streptococcus pneumoniae. Briefly: MIC summary statement, staphylococci and pneumococci. Particulars: generally, for Staphylococcus aureus and/or Staphylococcus epidermidis and/or Streptococcus pneumoniae. How it is done:
as §1, §2

As a reminder, the MIC is the lowest concentration that inhibits growth of the organism. In the case of `COc1ccc2ncc(OCC[C@H]3CC[C@H](NC(=O)c4ccc5c(c4)NC(=O)CS5)CC3)cc2n1` [Example 2, 3-oxo-3,4-dihydro-2H-benzo[1,4]thiazine-6-carboxylic acid {trans-4-[2-(6-methoxy-[1,5]naphthyridin-3-yloxy)-ethyl]-cyclohexyl}-amide], the MIC in assay [1] was more than 32 µg/mL; in assay [2], not above 2 µg/mL; in assay [3], not above 2 µg/mL; in assay [4], not above 2 µg/mL; in assay [5], not above 2 µg/mL; in assay [6], not above 2 µg/mL.

Take `COc1ccc2ncc(OCC[C@H]3CC[C@H](NC(=O)c4ccc5c(c4)NC(=O)CS5)CC3)nc2c1` [Example 4, 3-oxo-3,4-dihydro-2H-benzo[1,4]thiazine-6-carboxylic acid {trans-4-[2-(7-methoxy-quinoxalin-2-yloxy)-ethyl]-cyclohexyl}-amide]: the MIC in assay [1] was more than 32 µg/mL; in assay [2] it was not above 2 µg/mL; in assay [3], not above 2 µg/mL; in assay [4], more than 32 µg/mL; in assay [5], not above 2 µg/mL.

Regarding `COc1ccc2ncc(OCC[C@H]3CC[C@H](NC(=O)c4ccc5c(c4)NC(=O)CO5)CC3)cc2n1` [Example 6, 3-oxo-3,4-dihydro-2H-benzo[1,4]oxazine-6-carboxylic acid {trans-4-[2-(6-methoxy-[1,5]naphthyridin-3-yloxy)-ethyl]-cyclohexyl}-amide], the MIC was more than 32 µg/mL in assay [1]; not above 2 µg/mL in assay [2]; not above 2 µg/mL in assay [3]; 4 µg/mL (≈ 8.39 µM) in assay [4]; not above 2 µg/mL in assay [5].

As to `O=C1CSc2ccc(C(=O)N[C@H]3CC[C@H](CCOc4cnc5ccc(F)cc5n4)CC3)cc2N1` [Example 7, 3-oxo-3,4-dihydro-2H-benzo[1,4]thiazine-6-carboxylic acid {trans-4-[2-(7-fluoro-quinoxalin-2-yloxy)-ethyl]-cyclohexyl}-amide], the MIC in assay [1] was more than 32 µg/mL; in assay [2], not above 2 µg/mL; in assay [3] it was more than 32 µg/mL; in assay [4] it was more than 32 µg/mL; in assay [5] it was not above 2 µg/mL.

In the case of `COc1ccc2ncc(OCCCN3CC(NC(=O)c4ccc5c(c4)NC(=O)CS5)C3)nc2c1` [Example 8, 3-oxo-3,4-dihydro-2H-benzo[1,4]thiazine-6-carboxylic acid {1-[3-(7-methoxy-quinoxalin-2-yloxy)-propyl]-azetidin-3-yl}-amide], the MIC in assay [1] is 16 µg/mL (≈ 33.4 µM); in assay [2], not above 2 µg/mL; in assay [3], 4 µg/mL (≈ 8.34 µM); in assay [4] it was 16 µg/mL (≈ 33.4 µM); in assay [5] it was not above 2 µg/mL.

Regarding `COc1ccc2ncc(OC(CN3CCC(NC(=O)c4ccc5c(c4)NC(=O)CS5)CC3)C(F)(F)F)nc2c1` (centres unmarked) [Example 14, 3-oxo-3,4-dihydro-2H-benzo[1,4]thiazine-6-carboxylic acid {1-[3,3,3-trifluoro-2-(7-methoxy-quinoxalin-2-yloxy)-propyl]-piperidin-4-yl}-amide], the MIC in assay [1] is more than 32 µg/mL; in assay [2] it was not above 2 µg/mL; in assay [3], 8 µg/mL (≈ 14.2 µM); in assay [4], 8 µg/mL (≈ 14.2 µM); in assay [5] it was not above 2 µg/mL.

For `COc1ccc2ncc(OCCN3CCC(NC(=O)c4cc5c(cc4Cl)SCC(=O)N5)CC3)nc2c1` [Example 15, 7-chloro-3-oxo-3,4-dihydro-2H-benzo[1,4]thiazine-6-carboxylic acid {1-[2-(7-methoxy-quinoxalin-2-yloxy)-ethyl]-piperidin-4-yl}-amide], the MIC in assay [1] was 4 µg/mL (≈ 7.58 µM); in assay [2], not above 2 µg/mL; in assay [3], not above 2 µg/mL; in assay [4] it was 8 µg/mL (≈ 15.2 µM); in assay [5], not above 2 µg/mL.

`COc1ccc2ncc(OCCN3CCC(NC(=O)c4cc5c(cc4Cl)SCC(=O)N5)CC3)cc2n1` [Example 16, 7-chloro-3-oxo-3,4-dihydro-2H-benzo[1,4]thiazine-6-carboxylic acid {1-[2-(6-methoxy-[1,5]naphthyridin-3-yloxy)-ethyl]-piperidin-4-yl}-amide]: the MIC in assay [1] was 8 µg/mL (≈ 15.2 µM); in assay [2] it was not above 2 µg/mL; in assay [3], 4 µg/mL (≈ 7.58 µM); in assay [4] it was 8 µg/mL (≈ 15.2 µM); in assay [5], not above 2 µg/mL.

Regarding `COc1ccc2ccc(OCCN3CCC(NC(=O)c4ccc5c(n4)NC(=O)CS5)CC3)nc2c1` [Example 17, 3-oxo-3,4-dihydro-2H-pyrido[3,2-b][1,4]thiazine-6-carboxylic acid {1-[2-(7-methoxy-quinolin-2-yloxy)-ethyl]-piperidin-4-yl}-amide], the MIC in assay [1] was more than 32 µg/mL; in assay [2] it was not above 2 µg/mL; in assay [3], 4 µg/mL (≈ 8.1 µM); in assay [4] it was 16 µg/mL (≈ 32.4 µM); in assay [5], not above 2 µg/mL.

`COc1cnc2ccc(OCCN3CCC(NC(=O)c4ccc5c(c4)NC(=O)CS5)CC3)nc2c1` [Example 18, 3-oxo-3,4-dihydro-2H-benzo[1,4]thiazine-6-carboxylic acid {1-[2-(7-methoxy-[1,5]naphthyridin-2-yloxy)-ethyl]-piperidin-4-yl}-amide]: the MIC was 8 µg/mL (≈ 16.2 µM) in assay [1]; not above 2 µg/mL in assay [2]; not above 2 µg/mL in assay [3]; 4 µg/mL (≈ 8.1 µM) in assay [4]; not above 2 µg/mL in assay [5].

`COc1cnc2ccc(OCCN3CCC(NC(=O)c4cc5c(cc4Cl)SCC(=O)N5)CC3)nc2c1` [Example 19, 7-chloro-3-oxo-3,4-dihydro-2H-benzo[1,4]thiazine-6-carboxylic acid {1-[2-(7-methoxy-[1,5]naphthyridin-2-yloxy)-ethyl]-piperidin-4-yl}-amide]: the MIC in assay [1] is 4 µg/mL (≈ 7.58 µM); in assay [2], not above 2 µg/mL; in assay [3] it was not above 2 µg/mL; in assay [4], 8 µg/mL (≈ 15.2 µM); in assay [5] it was not above 2 µg/mL.

Regarding `COc1ccc2ncc(OCCN3CCC(NC(=O)c4ccc5c(n4)NC(=O)CS5)CC3)nc2c1` [Example 20, 3-oxo-3,4-dihydro-2H-pyrido[3,2-b][1,4]thiazine-6-carboxylic acid {1-[2-(7-methoxy-quinoxalin-2-yloxy)-ethyl]-piperidin-4-yl}-amide], the MIC was more than 32 µg/mL in assay [1]; not above 2 µg/mL in assay [2]; not above 2 µg/mL in assay [3]; more than 32 µg/mL in assay [4]; not above 2 µg/mL in assay [5].

For the compound `COc1ccc2ncc(C(=O)OC[C@H]3CC[C@H](NC(=O)c4ccc5c(c4)NC(=O)CS5)CC3)cc2c1` [Example 28, 6-methoxy-quinoline-3-carboxylic acid trans-4-[(3-oxo-3,4-dihydro-2H-benzo[1,4]thiazine-6-carbonyl)-amino]-cyclohexylmethyl ester], the MIC was more than 32 µg/mL in assay [1]; not above 2 µg/mL in assay [2]; not above 2 µg/mL in assay [3]; more than 32 µg/mL in assay [4]; not above 2 µg/mL in assay [5].

With `COc1ccc2ncc(C(=O)OC[C@H]3CC[C@H](NCc4ccc5c(c4)OCCO5)CC3)cc2n1` [Example 29, 6-methoxy-[1,5]naphthyridine-3-carboxylic acid trans-4-[(2,3-dihydro-benzo[1,4]dioxin-6-ylmethyl)-amino]-cyclohexylmethyl ester], the MIC in assay [1] is more than 32 µg/mL; in assay [2], not above 2 µg/mL; in assay [3] it was not above 2 µg/mL; in assay [4], 4 µg/mL (≈ 8.63 µM); in assay [5] it was not above 2 µg/mL.

In the case of `COc1ccc2ncc(C(=O)OC[C@H]3CC[C@H](NC(=O)c4ccc5c(n4)NC(=O)CO5)CC3)cc2n1` [Example 30, 6-methoxy-[1,5]naphthyridine-3-carboxylic acid trans-4-[(3-oxo-3,4-dihydro-2H-pyrido[3,2-b][1,4]oxazine-6-carbonyl)-amino]-cyclohexylmethyl ester], the MIC in assay [1] is more than 32 µg/mL; in assay [2], not above 2 µg/mL; in assay [3], 4 µg/mL (≈ 8.14 µM); in assay [4] it was more than 32 µg/mL; in assay [5] it was not above 2 µg/mL.

In the case of `COc1ccc2ncc(C(=O)OC[C@H]3CC[C@H](NCCSc4cccs4)CC3)cc2n1` [Example 31, 6-methoxy-[1,5]naphthyridine-3-carboxylic acid trans-4-[2-(thiophen-2-ylsulfanyl)-ethylamino]-cyclohexylmethyl ester], the minimum inhibitory concentration (MIC) was more than 32 µg/mL in assay [1]; not above 2 µg/mL in assay [2]; 4 µg/mL (≈ 8.74 µM) in assay [3]; 8 µg/mL (≈ 17.5 µM) in assay [4]; not above 2 µg/mL in assay [5].

In the case of `COc1ccc2ncc(SCCN3CCC(NC(=O)c4nc5c(cc4Cl)SCC(=O)N5)CC3)cc2c1` [Example 56, 7-chloro-3-oxo-3,4-dihydro-2H-pyrido[3,2-b][1,4]thiazine-6-carboxylic acid {1-[2-(6-methoxy-quinolin-3-ylsulfanyl)-ethyl]-piperidin-4-yl}-amide], the MIC was 4 µg/mL (≈ 7.35 µM) in assay [1]; not above 2 µg/mL in assay [2]; 4 µg/mL (≈ 7.35 µM) in assay [3]; 16 µg/mL (≈ 29.4 µM) in assay [4]; not above 2 µg/mL in assay [5].
